Reference: PubChem BioAssay (NCI)
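Where inhibition never reached the appropriate level, the endpoint shown equals the highest concentration tested. Otherwise, values were interpolated linearly from a five-concentration, 48-hour dose response in 96-well plates. GI50 = concentration required for 50% inhibition of growth. TGI denotes the concentration required for complete inhibition of growth.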

Legend:
Experiment in all cases: growth of human tumour cells (NCI), 48 h
RXF 393 renal = tested on: RXF 393 renal
HCT-116 colon = tested on: HCT-116 colon
SF-539 CNS = tested on: SF-539 CNS
EKVX NSCLC = tested on: EKVX NSCLC
T-47D breast = tested on: T-47D breast
NCI-H226 lung = tested on: NCI-H226 lung
SF-295 CNS = tested on: SF-295 CNS
OVCAR-4 ovarian = tested on: OVCAR-4 ovarian
BT-549 breast = tested on: BT-549 breast
U251 CNS = tested on: U251 CNS

SMILES | TGI (RXF 393 renal) [µM] | TGI (HCT-116 colon) [µM] | TGI (SF-539 CNS) [µM] | TGI (EKVX NSCLC) [µM] | TGI (T-47D breast) [µM] | TGI (NCI-H226 lung) [µM] | TGI (SF-295 CNS) [µM] | TGI (OVCAR-4 ovarian) [µM] | TGI (BT-549 breast) [µM] | GI50 (RXF 393 renal) [µM] | GI50 (HCT-116 colon) [µM] | GI50 (SF-539 CNS) [µM] | GI50 (EKVX NSCLC) [µM] | GI50 (T-47D breast) [µM] | GI50 (NCI-H226 lung) [µM] | GI50 (SF-295 CNS) [µM] | GI50 (OVCAR-4 ovarian) [µM] | GI50 (BT-549 breast) [µM] | GI50 (U251 CNS) [µM] | TGI (U251 CNS) [µM]
O=C(OCC(OC(=O)c1ccccc1)C(OC(=O)c1ccccc1)C(OC(=O)c1ccccc1)c1cnn(-c2ccccc2)n1)c1ccccc1 (configuration not stated) | > 100 | > 100 | > 100 | > 100 | > 100 | > 100 | > 100 | > 100 | > 100 |  |  |  |  |  |  |  |  |  |  | 
CCCCCCCCCCN1CCC(N2CCCCC2)CC1 | 7.15 |  | 2.88 | 18.3 | 3.58 | 23.4 | 4.2 | 20.7 | 16.1 | 2.01 | 1.27 | 1.48 | 4.37 | 1.53 | 7.55 | 1.96 | 6.61 | 3.62 | 1.51 | 4.47
Nc1ccccc1SC1CC(=O)N(c2ccc(Cl)c(Cl)c2)C1=O (configuration not stated) | 42.8 | > 100 | > 100 | > 100 | > 100 | 64.4 | > 100 | > 100 | > 100 | 14.2 | 24.2 | 63.6 | 17.4 | 12.6 | 14.6 | 10.1 | 19.2 | 62.2 | 21.1 | > 100
Cc1ccc(Nc2nnc(-c3ccc4c(c3)OCO4)o2)c(C)c1 | > 100 | > 100 | > 100 | > 100 | > 100 | > 100 | > 100 | > 100 | > 100 |  |  |  |  |  |  |  |  |  |  | > 100
Cc1ccc(S(=O)(=O)NC(=O)NC2=NC(C)(C)N(c3ccc(Cl)c(Cl)c3)C(N)=N2)cc1 | > 100 | > 100 | > 100 | > 100 | > 100 | > 100 | > 100 | > 100 | > 100 |  |  |  |  |  |  |  |  |  |  | > 100
O=[N+]([O-])c1ccc(CSCc2ccc(Cl)cc2)cc1 | > 100 | > 100 | > 100 | > 100 | > 100 | > 100 | > 100 | > 100 | > 100 |  |  |  |  |  |  |  |  |  |  | > 100
CC1=C(C(=O)Nc2ccccc2)C(c2ccc(C3C(C(=O)Nc4ccccc4)=C(C)NC(C)=C3C(=O)Nc3ccccc3)cc2)C(C(=O)Nc2ccccc2)=C(C)N1 | 3.87 | 4.52 | 5.97 | 10.6 | 16.2 | 16 | 7.88 | 16.1 | 8.67 |  |  |  |  |  |  |  |  |  |  | 3
Clc1cc(Cl)cc(Nc2ccc3cc(OCCCN4CCOCC4)ccc3n2)c1 | 3.6 |  |  | > 100 | 14.1 | > 100 | 3.65 | > 100 | 9.44 | 1.51 |  |  | 3.39 | 3.01 | 3.76 | 1.66 | 3.44 | 2.65 |  | 
Cc1nn(C(=O)c2ccc(Cl)cc2)c2c1C(c1ccc(O)cc1)SC(N)=N2 (configuration not stated) | > 10 | > 10 | > 10 | > 10 | > 10 | > 10 | > 10 | > 10 | > 10 |  |  |  |  |  |  |  |  |  |  | > 10
